Measured values: patent publication US20230279246A1, “MOLECULE-CONTAINING SURFACES AND METHODS OF PREPARATION THEREOF” (University of Durham, priority 2020, published 2023)

Test system: Gram-negative Escherichia coli BW25113
Test: Antibacterial testing of coated substrates, CFU plate counting
Conditions: relative to untreated substrate; for Bacteria Loss/Log10 Reduction E. coli (Gram-negative): coated PET film, 4 h at 30 °C, mean ± standard deviation; for Log10 Reduction E. coli: plasma poly(4-vinylaniline) series, title: polypropylene film, text: PET substrates, average ± standard deviation
Experimental: The prepared substrates with their respective coatings were subsequently tested for their antibacterial qualities against representative species of Gram-negative and Gram-positive bacteria. Gram-negative Escherichia coli BW25113 (CGSC 7636; rrnB3 ΔlacZ4787 hsdR514 Δ(araBAD)567 Δ(rhaBAD)568 rph-1) and Gram-positive Staphylococcus aureus (FDA209P, an MSSA strain; ATCC 6538P) bacteria cultures were prepared using autoclaved (Autoclave Vario 1528, Dixons Ltd.) Luria-Bertani broth media (LB; L3022, Sigma-Aldrich Ltd., 2% w/v in Milli-Q® grade water). A 5 ml bacterial culture was grown from a single colony for 16 h at 37° C., and then 50 μL used to inoculate a sterile polystyrene cuvette (Catalogue No. 67.742, Sarstedt AG) containing 1 mL of LB Broth. The cuvette was covered with Parafilm (Cole-Parmer Ltd.) and then placed inside a shaking incubator (model Stuart Orbital Incubator S1500, Cole-Parmer Ltd.) set at 37° C. and 120 rpm. An optical density OD600nm=0.4 was verified using a UV-Vis spectrophotometer (model Jenway 6300, Cole-Parmer Ltd.) to obtain bacteria at the mid-log phase of growth.
Uncoated control samples were washed in absolute ethanol for 15 minutes and then dried under vacuum in order to make sure they were sterile and clean. Sterile microtubes (1.5 mL, Sarstedt AG) were loaded with the untreated, or coated substrates. Next, 100 μL of the prepared bacterial culture was placed onto each substrate (so that the microorganisms could interact with one side of the surface), and left to incubate (model Bacterial Incubator 250, LMS Ltd.) for 4 hours at 30° C. Next, 900 μL of autoclaved Luria-Bertani broth media was pipetted into each microtube and vortexed (model Vortex-Genie 2, Scientific Industries Inc.) in order to recover the bacteria as a 10-fold dilution (10^−1). Further ten-fold serial dilutions were undertaken to provide 10^−2, 10^−3, 10^−4, 10^−5 and 10^−6 samples. Colony-forming unit (CFU) plate counting was performed by placing 10 μL drops from each diluted sample onto autoclaved Luria-Bertani Agar solid plates (EZMix™ powder, dust free, fast dissolving fermentation medium, L7533, Sigma-Aldrich Ltd.) and incubated (model Bacterial Incubator 250, LMS Ltd.) for 16 hours at 30° C. The number of colonies visible at each dilution were then counted. All tests were performed in triplicate.
Gram-negative Escherichia coli BW25113 (CGSC 7636; rrnB3 ΔlacZ4787 hsdR514 Δ(araBAD)567 Δ(rhaBAD)568 rph-1) and Gram-positive Staphylococcus aureus (FDA209P, an MSSA strain; ATCC 6538P) bacteria cultures were prepared using autoclaved (Autoclave Vario 1528, Dixons Ltd.) Luria-Bertani broth media (LB; L3022, Sigma-Aldrich Ltd., 2% w/v in grade water). A 5 ml bacterial culture was grown from a single colony for 16 h at 37° C., and then 50 μL used to inoculate a sterile polystyrene cuvette (Part No. 67.742, Sarstedt AG) containing 1 mL of LB Broth. The cuvette was covered with Parafilm (Cole-Parmer Ltd.) and then placed inside a shaking incubator (model Stuart Orbital Incubator S1500, Cole-Parmer Ltd.) set at 37° C. and 120 rpm to allow the bacteria to grow until an optical density OD600nm=0.4 was measured using a UV-Vis spectrophotometer (model Jenway 6300, Cole-Parmer Ltd.) which corresponded to the mid-log phase growth of bacteria.
Antibacterial testing was performed within 24 h of fabricating the coatings. Uncoated control samples were cleaned and sterilized by washing in absolute ethanol for 15 min and drying under vacuum. Each uncoated or coated substrate piece was placed aseptically inside a sterile microtube (1.5 mL, Sarstedt AG) so that the microorganisms could interact with one side of the surface. Next, 100 μL of the prepared bacterial culture was pipetted onto each substrate. In practice, the porous substrates absorbed the liquid so that the entire 15 mm×15 mm area of the samples was permeated by the bacterial suspension.

With `O=C(OC[C@H]1O[C@@H](OC(=O)c2cc(O)c(O)c(OC(=O)c3cc(O)c(O)c(O)c3)c2)[C@H](OC(=O)c2cc(O)c(O)c(OC(=O)c3cc(O)c(O)c(O)c3)c2)[C@@H](OC(=O)c2cc(O)c(O)c(OC(=O)c3cc(O)c(O)c(O)c3)c2)[C@@H]1OC(=O)c1cc(O)c(O)c(OC(=O)c2cc(O)c(O)c(O)c2)c1)c1cc(O)c(O)c(OC(=O)c2cc(O)c(O)c(O)c2)c1` [Tannic Acid, tannic acid] the “Bacteria Loss/Log10 Reduction E. coli (Gram-negative)” value (“Bacteria Loss/Log10 Reduction E. coli” for short) was 0.00 Log10 Reduction and the “Bacteria Loss/Log10 Reduction E. coli” value (listed as Tannic acid-only) was “no antibacterial activity”.

In the case of `O=C/C=C/c1ccccc1` [Cinnamaldehyde, trans-cinnamaldehyde], the “Bacteria Loss/Log10 Reduction E. coli” value is reported as 0.12 ± 0.07 Log10 Reduction, the “Bacteria Loss/Log10 Reduction E. coli” value (listed as cinnamaldehyde) is reported as “very small antibacterial effect” and the “Log10 Reduction E. coli” value (listed as Cinnamaldehyde-only) is reported as 0.12 ± 0.07 Log10 Reduction. For the same compound, the “Log10 Reduction E. coli” value (listed as cinnamaldehyde-only) was “very small effect”.
